The series in a line: Solubility of cis-FTC Ester and cis-FTC Alcohol in various solvent systems. It counts as physicochemical. How it is done: Therefore, the solubility of the FTC ester in several solvent systems was determined.
Therefore, the solubility of the cis-FTC Alcohol in several solvent systems was determined.

Each structure is given as a SMILES string.

For `Nc1nc(=O)n([C@@H]2CS[C@H](CO)O2)cc1F` (relative stereo) [cis-FTC Alcohol, cis-5-fluoro-1-{2-(hydroxymethyl)-1,3-oxathiolan-5-yl}cytosine], the Solubility by setting is: (100% acetonitrile, RT) 0.38%; (100% ethanol, RT) 0.51%; (100% isopropyl alcohol, RT) 0.38%; (100% methanol, 40-45° C.) 3.21%; (100% methanol, RT) 0.77%; (100% water, RT) 0.37%.
For the compound `CCCC(=O)OC[C@@H]1O[C@H](n2cc(F)c(N)nc2=O)CS1` (relative stereo) [cis-FTC Ester, cis-{5-(4-amino-5-fluoro-2-oxo-1(2H)-pyrimidinyl)-1,3-oxathiolan-2-yl}methyl butanoate], the Solubility stood at 3.59% (20% isopropyl alcohol/80% water, 40-45° C.); 9.03% (50% ethanol/50% methanol, 20° C.); 2.40% (70% water/30% 2-propanol, 20° C.); 5.39% (70% water/30% 2-propanol, 35° C.); 3.16% (74.6% water/13.99% 2-propanol/11.41% butanol, 20° C.); 10.5% (74.6% water/13.99% 2-propanol/11.41% butanol, 35° C.). The Solubility is, setting by setting: (80% water/5.5% 2-propanol/14.5% butanol, 20° C.) 2.55%; (80% water/10% 2-propanol/10% butanol, 20° C.) 2.27%; (80% water/10% 2-propanol/10% butanol, 35° C.) 5.94%; (80% water/15% 2-propanol/5% butanol, 20° C.) 2.57%; (80% water/15% 2-propanol/5% tetrahydrofuran, 20° C.) 0.89%; (80% water/20% 2-butanol, 20° C.) 3.00%. For the same compound, the Solubility worked out at 1.60% (80% water/20% 2-propanol, 20° C.); 3.80% (80% water/20% 2-propanol, 35° C.); 0.52% (80% water/20% ethanol, 20° C.); 0.81% (80% water/20% methanol, 20° C.); 1.80% (80% water/20% tetrahydrofuran, 20° C.); 0.64% (85% water/10% 2-propanol/5% tetrahydrofuran, 20° C.). The same compound yielded a Solubility (85% water/15% 2-propanol, 35° C.) of 0.70%; a Solubility (85% water/15% dimethylformamide, 20° C.) of 1.24%; a Solubility (90% water/10% dimethylformamide, 20° C.) of 1.13%; a Solubility (95% water/5% dimethylformamide, 20° C.) of 0.47%; a Solubility (100% 2-propanol, 35° C.) of 2.68%; a Solubility (100% acetonitrile, 40-45 C) of 3.85%. Moreover, the Solubility (100% acetonitrile, 50° C.) is 6.20%; the Solubility (100% acetonitrile, RT) was 1.41%; the Solubility (100% ethanol, 20° C.) amounted to 4.36%; the Solubility (100% ethanol, RT, 40-45 C) is given as 1.28%; the Solubility (100% ethyl acetate, 20° C.) came out at 3.03%??; the Solubility (100% isopropyl alcohol, RT, 40-45° C.) is 0.38%. For the setting “100% methanol, 20° C.”, this compound showed a Solubility of 11.73%.

The values are drawn from patent US6541631B1, “Methods of separating FTC isomers and derivatives thereof” (Pharma-Eco Laboratories, Inc., priority 1999, dated 2003).
